How the values were obtained:
[1] = test system: Streptozotocin induced diabetic mice; assay: Antidiabetic activity in streptozotocin induced diabetic mice; format: in vivo, Swiss albino mice; settings: plasma, 50 mg/kg oral for 7 days, female mice, vs control group
Method: Antidiabetic Activity in Streptozotocin Induced Diabetic Mice
Female Swiss albino mice, at the age of 10 weeks were used in the study. Diabetes was induced in the animals by injecting streptozotocin by i.p. route at a dose of 200-mg/kg-body weight. 48 hours after streptozotocin administration, the animals were kept fasting for 6 hours. Subsequently blood was collected, plasma separated and the glucose was estimated. Animals showing greater than 200 mg/dl glucose levels were considered as diabetic and these animals were randomly distributed into various groups. The compounds 2 listed in the table 3 were administered at a dose of 50-mg/kg body weight by oral route for 7 days. Later the animals were fasted for 6 hours, the blood was collected and the plasma was separated. Biochemical estimations like glucose, cholesterol and triglycerides were carried out using the plasma. The effect of the compounds mentioned in the table was expressed in terms of percentage reduction in biochemical values as compared to the control group.

DPP IV = molecular target: T1, DPP IV (Homo sapiens, UniProt P27487); assay: DPP IV assay with human plasma as source of DPP IV; format: biochemical; settings: 1 hr incubation, substrate H-gly-pro AMC, vs vehicle control
T1 construct: using human plasma as a source of DPP IV; from tissue; host or cells: human plasma
Method: DPP IV assay is carried by using human plasma as a source of DPP IV. The compounds were incubated at a concentration of 1 and 10 μM in an assay buffer containing the DPP IV enzyme for 1 hr, and then the substrate H-gly-pro AMC was added and further incubated for 20 minutes. Subsequently the reaction was stopped on addition of 25% glacial acetic acid. The plates were read in a spectrofluorimeter to get RFU on setting the excitation wavelength of 360 nm and emission wavelength of 460 nm. The percentage inhibition is calculated as compared to the vehicle control.

T1 sequence (P27487 39-766 limits assumed): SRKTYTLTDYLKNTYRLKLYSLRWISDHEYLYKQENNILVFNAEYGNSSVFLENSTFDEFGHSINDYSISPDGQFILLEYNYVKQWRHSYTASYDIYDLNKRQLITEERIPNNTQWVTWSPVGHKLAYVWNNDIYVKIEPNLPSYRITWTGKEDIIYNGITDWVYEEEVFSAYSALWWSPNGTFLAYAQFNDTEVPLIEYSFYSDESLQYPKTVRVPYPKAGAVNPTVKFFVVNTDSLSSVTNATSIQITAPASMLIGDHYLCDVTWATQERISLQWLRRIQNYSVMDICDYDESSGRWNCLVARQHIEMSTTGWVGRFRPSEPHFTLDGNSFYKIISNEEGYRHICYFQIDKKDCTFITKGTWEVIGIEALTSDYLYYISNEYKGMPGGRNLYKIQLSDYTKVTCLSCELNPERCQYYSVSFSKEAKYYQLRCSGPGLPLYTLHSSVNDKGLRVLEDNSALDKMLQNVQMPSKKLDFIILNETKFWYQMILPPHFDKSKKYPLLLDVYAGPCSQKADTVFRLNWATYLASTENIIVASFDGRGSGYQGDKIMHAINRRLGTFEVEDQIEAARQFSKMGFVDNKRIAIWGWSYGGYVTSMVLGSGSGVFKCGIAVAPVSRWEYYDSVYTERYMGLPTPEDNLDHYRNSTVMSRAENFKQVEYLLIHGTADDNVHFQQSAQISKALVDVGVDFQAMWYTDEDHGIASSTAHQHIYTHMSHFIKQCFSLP

Row | SMILES | inhibition at 1 µM (DPP IV) [%] | inhibition at 10 µM (DPP IV) [%] | % Reduction Glucose [1] [%] | % Reduction Triglyceride [1] [%]
1 | O=C1COCC(Cc2ccc(Oc3ccc(/C=C4\SC(=O)NC4=O)cc3Cl)cc2)N1 (stereo not shown) [Example 7, 5-(3-chloro-4-{4-[(5-oxomorpholin-3-yl)methyl]phenoxy}benzylidene)-1,3-thiazolidine-2,4-dione] |  |  | 44.5 | 60.9
2 | O=C1COCC(Cc2ccc(Oc3ccc(/C=C4/C(=O)Nc5ccccc54)cc3Cl)cc2)N1 (stereo not shown) [Example 9] | 6.3 | 7.5 |  | 
3 | O=C1COCC(Cc2ccc(Oc3ccc(/C=C4\SC(=O)NC4=O)cc3)cc2)N1 (stereo not shown) [Example 1, 5-[4-(4-{[5-oxomorpholin-3-yl]methyl}phenoxy)benzylidene]-1,3-thiazolidine-2,4-dione] |  |  | 41.6 | 
4 | O=C1COCC(Cc2ccc(Oc3ccc(/C=C4\SC(=S)NC4=O)cc3)cc2)N1 (stereo not shown) [Example 2, 5-(4-{4-[(4-oxo-2-thioxo-1,3-thiazolidin-5-ylidene)methyl]phenoxy}benzyl)morpholin-3-one] |  |  | 42.6 | 44.4

More lines, main results first:

Row | inhibition at 1 µM (DPP IV) [%] | inhibition at 10 µM (DPP IV) [%] | SMILES | % Reduction Glucose [1] [%] | % Reduction Triglyceride [1] [%]
5 | 12.1 | 9.1 | O=C1COCC(Cc2ccc(Oc3ccc(/C=C4/C(=O)Nc5ccccc54)cc3F)cc2)N1 (stereo not shown) [Example 15] |  | 
6 | 7.3 | 11.8 | O=C1COCC(Cc2ccc(Oc3ccc(/C=C4\SC(=S)NC4=O)cc3C(F)(F)F)cc2)N1 (stereo not shown) [Example 18, 5-(4-{4-[(4-oxo-2-thioxo-1,3-thiazolidin-5-ylidene)methyl]-2-(trifluoromethyl)phenoxy}benzyl)morpholin-3-one] |  | 
7 | 8.9 | 15.2 | CN1C(=O)COCC1Cc1ccc(Oc2ccc(/C=C3\SC(=O)NC3=O)cc2)cc1 (stereo not shown) [Example 19, 5-(4-{4-[(4-methyl-5-oxomorpholin-3-yl)methyl]phenoxy}benzylidene)-1,3-thiazolidine-2,4-dione] |  | 
